The values that follow come from patent publication US7446199B2, “Compositions useful as inhibitors of protein kinases” (Vertex Pharmaceuticals Incorporated, priority 2003, dated 2008).

Common to all, as to format: biochemical
For experiment [1], the target named is GSK-3β, (AA 1-420) (Homo sapiens, UniProt P49841). The experiment can be described thus: GSK-3 inhibition assay, coupled enzyme system. The note with it: 20 μM ATP, 300 μM peptide, 20 nM GSK-3b, 30° C.; read-out: Ki values (GSK3). An outline of the steps:
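Pyruvate kinase/lactate dehydrogenase-coupled NADH assay with 20 nM enzyme, 20 μM ATP and 300 μM peptide in HEPES pH 7.5, 1.5% DMSO, 30° C. Compound (0.002–30 μM, 12-point) preincubated 10 min before ATP start; rates over 10 min gave Ki.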

Experiment [2] deals with T1, Aurora-2 (Homo sapiens, UniProt O14965).
T1 construct: addition of 10 μL of Aurora-2 stock solution to give a final concentration of 70 nM
T1 sequence (O14965 1-403): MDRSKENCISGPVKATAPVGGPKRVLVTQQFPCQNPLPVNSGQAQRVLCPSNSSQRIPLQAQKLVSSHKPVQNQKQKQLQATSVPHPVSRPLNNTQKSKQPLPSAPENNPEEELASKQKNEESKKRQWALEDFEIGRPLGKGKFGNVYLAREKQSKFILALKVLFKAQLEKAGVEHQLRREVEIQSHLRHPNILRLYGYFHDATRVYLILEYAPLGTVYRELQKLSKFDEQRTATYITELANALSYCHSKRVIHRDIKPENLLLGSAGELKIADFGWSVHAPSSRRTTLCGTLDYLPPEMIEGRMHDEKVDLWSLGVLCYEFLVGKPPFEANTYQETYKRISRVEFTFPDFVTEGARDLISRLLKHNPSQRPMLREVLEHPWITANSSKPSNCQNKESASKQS
The experiment in a line: Inhibition of AUR-2, coupled enzyme assay. Particulars: 70 nM Aurora-2, 800 μM peptide LRRASLG, 30° C. As for the experimental part:
Compounds are screened in the following manner for their ability to inhibit Aurora-2 using a standard coupled enzyme assay (Fox et al. (1998) Protein Sci 7, 2249). To an assay stock buffer solution containing 0.1M HEPES 7.5, 10 mM MgCl2, 1 mM DTT, 25 mM NaCl, 2.5 mM phosphoenolpyruvate, […], […], […], and 800 μM peptide (LRRASLG, American Peptide, Sunnyvale, Calif.) is added a DMSO solution of a compound of the present invention to a final concentration of 30 μM. The resulting mixture is incubated at 30° C. for 10 min. The reaction was initiated by the addition of 10 μL of Aurora-2 stock solution to give a final concentration of 70 nM in the assay. The rates of reaction are obtained by monitoring absorbance at 340 nm over a 5 minute read time at 30° C. using a BioRad Ultramark plate reader (Hercules, Calif.). The Ki values are determined from the rate data as a function of inhibitor concentration.

Experiment [3] deals with T2, c-KIT (Homo sapiens, UniProt P10721).
T2 construct: 0.02% BSA and 25 nM c-KIT
The experiment in a line: Inhibition of c-KIT, radiometric filter-binding assay. The note with it: 700 μM ATP, 0.5 mg/mL pE4Y, room temperature. The method, boiled down:
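Radiometric filter-binding: 25 nM c-KIT (enzyme in the Solution 2 mix) with poly(Glu,Tyr) 4:1 substrate at 0.5 mg/mL and [γ-^33P]ATP at 700 μM (both final), in HEPES pH 7.5/MgCl2/NaCl/DTT/BSA with 2.5% DMSO. Incubated 20 min at room temperature, stopped with TCA, and ^33P incorporation counted on filters. 12-point titration, final compound typically 0.01-5 μM; IC50 or Ki from curve fit.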

T2 sequence (P10721 26-976): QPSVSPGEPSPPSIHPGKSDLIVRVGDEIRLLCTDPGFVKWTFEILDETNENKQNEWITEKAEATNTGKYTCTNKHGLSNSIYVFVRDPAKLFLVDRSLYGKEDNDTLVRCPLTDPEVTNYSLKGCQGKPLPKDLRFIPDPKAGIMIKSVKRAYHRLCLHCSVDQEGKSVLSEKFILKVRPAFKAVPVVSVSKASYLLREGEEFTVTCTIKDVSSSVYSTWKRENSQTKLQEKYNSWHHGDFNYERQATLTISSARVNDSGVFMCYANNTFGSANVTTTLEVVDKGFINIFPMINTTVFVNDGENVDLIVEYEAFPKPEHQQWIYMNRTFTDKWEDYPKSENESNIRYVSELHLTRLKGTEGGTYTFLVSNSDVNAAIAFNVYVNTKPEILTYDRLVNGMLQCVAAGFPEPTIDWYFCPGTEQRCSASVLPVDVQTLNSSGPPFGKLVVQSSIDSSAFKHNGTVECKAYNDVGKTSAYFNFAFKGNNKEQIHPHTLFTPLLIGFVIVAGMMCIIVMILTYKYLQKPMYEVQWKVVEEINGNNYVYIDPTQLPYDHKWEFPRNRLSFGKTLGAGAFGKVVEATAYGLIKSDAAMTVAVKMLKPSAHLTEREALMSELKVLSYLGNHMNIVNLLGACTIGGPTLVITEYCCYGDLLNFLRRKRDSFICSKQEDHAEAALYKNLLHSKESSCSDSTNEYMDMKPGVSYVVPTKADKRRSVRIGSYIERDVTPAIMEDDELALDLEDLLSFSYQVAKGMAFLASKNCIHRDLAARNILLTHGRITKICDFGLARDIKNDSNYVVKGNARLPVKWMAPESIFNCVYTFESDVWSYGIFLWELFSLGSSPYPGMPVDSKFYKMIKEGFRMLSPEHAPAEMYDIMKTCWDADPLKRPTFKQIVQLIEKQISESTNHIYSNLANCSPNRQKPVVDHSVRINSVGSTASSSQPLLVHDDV
Sequence of GSK-3β, (AA 1-420) (P49841 whole entry, the tested form may be a part): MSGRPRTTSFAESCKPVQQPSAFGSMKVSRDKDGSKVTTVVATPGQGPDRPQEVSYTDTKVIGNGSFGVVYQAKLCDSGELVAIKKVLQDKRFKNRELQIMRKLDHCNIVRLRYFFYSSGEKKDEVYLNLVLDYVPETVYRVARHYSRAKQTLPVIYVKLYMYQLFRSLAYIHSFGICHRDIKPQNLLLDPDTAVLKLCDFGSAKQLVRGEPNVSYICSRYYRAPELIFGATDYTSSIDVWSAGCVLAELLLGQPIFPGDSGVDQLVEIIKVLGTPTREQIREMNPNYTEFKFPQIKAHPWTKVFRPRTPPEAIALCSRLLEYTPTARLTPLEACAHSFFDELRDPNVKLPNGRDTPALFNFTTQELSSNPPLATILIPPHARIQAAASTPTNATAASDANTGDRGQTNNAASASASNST

As usually defined, the Ki is a measure of affinity in units of concentration, obtained from inhibition or displacement. Take `c1cnc2[nH]cc(-c3oncc3C3CCCCC3)c2c1` [Compound 47, 3-(4-Cyclohexyl-isoxazol-5-yl)-1H-pyrrolo[2,3-b]pyridine]: the inhibition constant Ki in experiment [1] is 1000 to 12500 nM; in experiment [2], 200 to 1000 nM.

As for `CS(=O)(=O)Nc1ccc(-c2cnc3[nH]cc(-c4oncc4-c4cccc(F)c4F)c3c2)cc1` [Compound 98, N-(4-{3-[4-(2,3-Difluoro-phenyl)-isoxazol-5-yl]-1H-pyrrolo[2,3-b]pyridin-5-yl}-phenyl)-methane sulfonamide], the inhibition constant (Ki) in experiment [1] and in experiment [2] was less than 200 nM each time.

As to `Fc1cccc(-c2cnoc2-c2c[nH]c3ncc(Br)cc23)c1F` [Compound 37, 5-Bromo-3-[4-(2,3-difluoro-phenyl)-isoxazol-5-yl]-1H-pyrrolo[2,3-b]pyridine], the Ki was 200 to 1000 nM in experiment [1] and less than 200 nM in experiment [2].

Consider `O=c1[nH]ccc2c(-c3oncc3-c3cccc(F)c3F)c[nH]c12` [Compound 145, 3-[4-(2,3-Difluoro-phenyl)-isoxazol-5-yl]-1,6-dihydro-pyrrolo[2,3-c]pyridin-7-one], for which the Ki in experiment [1] and in experiment [2] was 200 to 1000 nM in each case.

Consider `CN1CCCN(c2ccc(-c3cnc4[nH]cc(-c5nncn5-c5cccc(F)c5F)c4c3)cn2)CC1` [Compound 117, 3-[4-(2,3-Difluoro-phenyl)-4H-[1,2,4]triazol-3-yl]-5-[6-(4-methyl-[1,4]diazepan-1-yl)-pyridin-3-yl]-1H-pyrrolo [2,3-b]-pyridine], for which the Ki in experiment [1] and in experiment [3] was 200 to 1000 nM throughout.

As to `Fc1ccc(-c2cnc3[nH]cc(-c4oncc4-c4cccc(F)c4F)c3c2)cn1` [Compound 69, 3-[4-(2,3-Difluoro-phenyl)-isoxazol-5-yl]-5-(6-fluoro-pyridin-3-yl)-1H-pyrrolo[2,3-b]pyridine], the inhibition constant (Ki) in experiment [1] and in experiment [3] was less than 200 nM each time.

As to `Fc1ccc(-c2cnoc2-c2c[nH]c3ncccc23)c(F)c1F` [Compound 40, 3-[4-(2,3,4-Trifluoro-phenyl)-isoxazol-5-yl]-1H-pyrrolo [2,3-b]pyridine], the Ki fell in the range of 1000 to 12500 nM in experiment [1] and 200 to 1000 nM in experiment [3].

As to `Fc1cccc(-c2cnoc2-c2c[nH]c3ncc(C4=CCC(N5CCOCC5)CC4)cc23)c1F` (stereo not drawn) [Compound 139, 3-[4-(2,3-Difluoro-phenyl)-isoxazol-5-yl]-5-(4-morpholin-4-yl-cyclohex-1-enyl)-1H-pyrrolo[2,3-b]pyridine], the inhibition constant (Ki) in experiment [1] and in experiment [3] was less than 200 nM each time.

`CN1CCC(c2cnc3[nH]cc(-c4oncc4-c4cccc(F)c4F)c3c2)CC1` [Compound 60, 3-[4-(2,3-Difluoro-phenyl)-isoxazol-5-yl]-5-(1-methyl-piperidin-4-yl)-1H-pyrrolo[2,3-b]pyridine]: the inhibitory constant (Ki) in experiment [1] and in experiment [3] was 200 to 1000 nM throughout.

With `NC1CC=C(c2cnc3[nH]cc(-c4oncc4-c4cccc(F)c4F)c3c2)CC1` (stereo not drawn) [Compound 137, 4-{3-[4-(2,3-Difluoro-phenyl)-isoxazol-5-yl]-1H-pyrrolo [2,3-b]pyridin-5-yl}-cyclohex-3-enylamine], the Ki in experiment [1] and in experiment [3] was less than 200 nM each time.

Consider `CN(C)Cc1ccc(-c2cnc3[nH]cc(-c4oncc4-c4cccc(F)c4F)c3c2)nc1` [Compound 84, (6-{3-[4-(2,3-Difluoro-phenyl)-isoxazol-5-yl]-1H-pyrrolo[2,3-b]pyridin-5-yl}-pyridin-3-ylmethyl)-dimethyl-amine], for which the inhibition constant (Ki) was 200 to 1000 nM in experiment [1] and less than 200 nM in experiment [3].

Take `CN1CCN(c2ccc(-c3cnc4[nH]cc(-c5nncn5-c5cccc(F)c5F)c4c3)cn2)CC1` [Compound 112]: the Ki in experiment [1] and in experiment [3] was 200 to 1000 nM in each case.

For the compound `OC1CCN(c2ccc(-c3cnc4[nH]cc(-c5nncn5-c5cccc(F)c5F)c4c3)cn2)CC1` [Compound 116, 5′-{3-[4-(2,3-Difluoro-phenyl)-4H-[1,2,4]triazol-3-yl]-1H-pyrrolo[2,3-b]pyridin-5-yl}-3,4,5,6-tetrahydro-2H-[1,2′]bi-pyridinyl-4-ol], the Ki in experiment [1] and in experiment [3] was 200 to 1000 nM throughout.

Turning to `CS(=O)(=O)NC1CC=C(c2cnc3[nH]cc(-c4oncc4-c4cccc(F)c4F)c3c2)CC1` (stereo not drawn) [Compound 140, N-(4-{3-[4-(2,3-Difluoro-phenyl)-isoxazol-5-yl]-1H-pyrrolo[2,3-b]pyridin-5-yl}-cyclohex-3-enyl)-methanesulfonamide], the Ki in experiment [1] and in experiment [3] was less than 200 nM each time.

`CN(C)CC#Cc1cnc2[nH]cc(-c3oncc3-c3cccc(F)c3F)c2c1` [Compound 53, (3-{3-[4-(2,3-Difluoro-phenyl)-isoxazol-5-yl]-1H-pyrrolo[2,3-b]pyridin-5-yl}-prop-2-ynyl)-dimethyl-amine]: the figures for the Ki in experiment [1] and in experiment [3] were 200 to 1000 nM and less than 200 nM, respectively.

Turning to `CN1CCN(c2ccc(-c3cnc4[nH]cc(-c5nncn5-c5cccc(F)c5F)c4c3)cc2)CC1` [Compound 110, 3-[4-(2,3-Difluoro-phenyl)-4H-[1,2,4]triazol-3-yl]-5-[4-(4-methyl-piperazin-1-yl)-phenyl]-1H-pyrrolo[2,3-b]pyridine], the values for the Ki in experiment [1] and in experiment [3] were 200 to 1000 nM and less than 200 nM, respectively.

As for `Fc1cccc(-c2cnoc2-c2c[nH]c3ncc(C4=CCC(NCc5ccccc5)CC4)cc23)c1F` (stereo not drawn) [Compound 136, Benzyl-(4-{3-[4-(2,3-difluoro-phenyl)-isoxazol-5-yl]-1H-pyrrolo[2,3-b]pyridin-5-yl}-cyclohex-3-enyl)-amine], the inhibitory constant (Ki) in experiment [1] is 200 to 1000 nM; in experiment [3] it was less than 200 nM.

Turning to `COc1ccnc(-c2cnc3[nH]cc(-c4oncc4-c4cccc(F)c4F)c3c2)c1` [Compound 78, 3-[4-(2,3-Difluoro-phenyl)-isoxazol-5-yl]-5-(4-methoxy-pyridin-2-yl)-1H-pyrrolo[2,3-b]pyridine], the Ki in experiment [1] was 200 to 1000 nM; in experiment [3] it was less than 200 nM.

`CN(C)c1cccc(-c2cnc3[nH]cc(-c4oncc4-c4cccc(F)c4F)c3c2)c1` [Compound 61, (3-{3-[4-(2,3-Difluoro-phenyl)-isoxazol-5-yl]-1H-pyrrolo[2,3-b]pyridin-5-yl}-phenyl)-dimethyl-amine]: the inhibition constant Ki was 200 to 1000 nM in experiment [1] and less than 200 nM in experiment [3].

In the case of `Fc1cccc(-n2cnnc2-c2c[nH]c3ncc(-c4ccc(CN5CCOCC5)cc4)cc23)c1F` [Compound 109, 3-[4-(2,3-Difluoro-phenyl)-4H-[1,2,4]triazol-3-yl]-5-(4-morpholin-4-ylmethyl-phenyl)-1H-pyrrolo[2,3-b]pyridine], the Ki in experiment [1] and in experiment [3] was less than 200 nM in each case.

Take `Cc1noc(-c2c[nH]c3ncc(-c4ccc(N5CCN(C)CC5)cc4)cc23)c1-c1cccc(F)c1F` [Compound 135, 3-[4-(2,3-Difluoro-phenyl)-3-methyl-isoxazol-5-yl]-5-[4-(4-methyl-piperazin-1-yl)-phenyl]-1H-pyrrolo[2,3-b]pyridine]: the inhibition constant (Ki) in experiment [1] and in experiment [3] was less than 200 nM each time.

On to `O=c1ccc(-c2cnc3[nH]cc(-c4oncc4-c4cccc(F)c4F)c3c2)c[nH]1` [Compound 67, 5-{3-[4-(2,3-Difluoro-phenyl)-isoxazol-5-yl]-1H-pyrrolo [2,3-b]pyridin-5-yl}-1H-pyridin-2-one], for which the Ki in experiment [1] and in experiment [3] was less than 200 nM in each case.

As to `CN(C)CCNc1ccc(-c2cnc3[nH]cc(-c4nncn4-c4cccc(F)c4F)c3c2)cn1` [Compound 119, N′-(5-{3-[4-(2,3-Difluoro-phenyl)-4H-[1,2,4]triazol-3-yl]-1H-pyrrolo[2,3-b]pyridin-5-yl}-pyridin-2-yl)-N,N-dimethyl-ethane-1,2-diamine], the inhibition constant (Ki) in experiment [1] and in experiment [3] was 200 to 1000 nM in each case.

`Fc1cccc(-c2cnoc2-c2c[nH]c3ncc(C4CCNCC4)cc23)c1F` [Compound 62, 3-[4-(2,3-Difluoro-phenyl)-isoxazol-5-yl]-5-piperidin-4-yl-1H-pyrrolo[2,3-b]pyridine]: the Ki in experiment [1] and in experiment [3] was 200 to 1000 nM each time.
